Test system: L. major lysate proteins
Assay: Multitargeted bead mixture chemoproteomics, single concentration competition, proteome-wide
Format: binding
Conditions: for fold change: vehicle control = 1

**Q.** For Nc1nc2c(c(=O)[nH]1)N(C=O)C(CNc1ccc(C(=O)N[C@@H](CCC(=O)O)C(=O)O)cc1)CN2 (stereo partly drawn) [LEU, leucovorin], which “fold change vs vehicle control” value (protein LMJF.15.0690 HY[…], CONSERVED) is on record?
**A.** 1.14

**Q.** And the fold change (protein LMJF.15.1010 GLUTAMATE DEHYDROGENASE)?
**A.** 0.98

**Q.** What about the fold change (protein LMJF.15.1190 HYPOTHETICAL PROTEIN, CONSERVED (cyclic nucleotide-binding domain containing protein, putative)) of the same molecule?
**A.** 0.96

**Q.** And the “fold change vs vehicle control” value (protein LMJF.16.0520 HYPOTHETICAL PROTEIN, CONSERVED)?
**A.** 1.1

**Q.** And the “fold change vs vehicle control” value (protein LMJF.16.0540 ASPARTATE CARBAMOYLTRANSFERASE, PUTATIVE)?
**A.** 0.98

**Q.** What about the “fold change relative to vehicle control” value (protein LMJF.16.0760, TRANSALDOLASE, PUTATIVE) of the same molecule?
**A.** 1.22

**Q.** And the “fold change vs vehicle control” value (protein LMJF.16.0940 DYNEIN LIGHT CHAIN, PUTATIVE)?
**A.** 1.06

**Q.** What about the “fold change relative to vehicle control” value (protein LMJF.16.1180, COATOMER DELTA SUBUNIT-LIKE PROTEIN) of the same molecule?
**A.** 1.21

**Q.** And the “fold change relative to vehicle control” value (protein LMJF.16.1320, CYTOCHROME C, PUTATIVE)?
**A.** 2.28

**Q.** What about the “fold change relative to vehicle control” value (protein LMJF.16.1420, HY[…], CONSERVED) of the same molecule?
**A.** 1.01

**Q.** What about the “fold change relative to vehicle control” value (protein LMJF.17.0081, […] 1-ALPHA) of the same molecule?
**A.** 1.09

**Q.** And the “fold change relative to vehicle control” value (protein LMJF.18.0270, GLYCOGEN SYNTHASE KINASE, PUTATIVE)?
**A.** 0.57

**Q.** What about the fold change (protein LMJF.18.0580 P[…]-COA HYDRATASE, PUTATIVE) of the same molecule?
**A.** 1.02

**Q.** And the “fold change relative to vehicle control” value (protein LMJF.18.0680, CITRATE SYNTHASE, PUTATIVE)?
**A.** 1.15

**Q.** And the “fold change vs vehicle control” value (protein LMJF.18.1010 DYNEIN LIGHT CHAIN 2B, CYTOPLASMIC, PUTATIVE)?
**A.** 0.99

**Q.** And the “fold change vs vehicle control” value (protein LMJF.18.1210 PROLYL-TRNA SYNTHETASE, PUTATIVE,BI[…]-TRNA SYNTHETASE, PUTATIVE)?
**A.** 1.38

**Q.** And the “fold change vs vehicle control” value (protein LMJF.18.1370 HEAT SHOCK PROTEIN, PUTATIVE)?
**A.** 0.99

**Q.** And the fold change (protein LMJF.19.0200 ADP,ATP CARRIER PROTEIN 1, MIT[…], PUTATIVE)?
**A.** 1.01

**Q.** And the “fold change vs vehicle control” value (protein LMJF.19.1120 PROTEASOME REGULATORY NON-ATP-ASE SUBUNIT, PUTATIVE)?
**A.** 0.93

**Q.** And the “fold change vs vehicle control” value (protein LMJF.19.1160 HYPOTHETICAL PROTEIN, CONSERVED)?
**A.** 0.87

**Q.** And the “fold change vs vehicle control” value (protein LMJF.19.1560 INOSINE-5'-MONOPHOSPHATE DEHYDROGENASE)?
**A.** 1.06

**Q.** And the “fold change relative to vehicle control” value (protein LMJF.19.1620, POTASSIUM VOLTAGE-GATED CHANNEL, PUTATIVE)?
**A.** 1.08

**Q.** What about the “fold change vs vehicle control” value (protein LMJF.20.1280 SMALL MYRISTOYLATED PROTEIN 4, PUTATIVE) of the same molecule?
**A.** 0.97

**Q.** And the fold change (protein LMJF.21.0810 METHIONYL-TRNA SYNTHETASE, PUTATIVE)?
**A.** 1.03

**Q.** And the fold change (protein LMJF.21.1450 ARGININE N-METHYLTRANSFERASE, TYPE II, PUTATIVE)?
**A.** 1.01

**Q.** And the “fold change vs vehicle control” value (protein LMJF.21.1830 […] 5 SUBUNIT, PUTATIVE,20S […] ALPHA 5, (PUTATIVE))?
**A.** 1.06

**Q.** And the fold change (protein LMJF.22.0230 AMINO ACID PERMEASE, PUTATIVE)?
**A.** 0.86

**Q.** And the “fold change vs vehicle control” value (protein LMJF.22.0570 PROTEASOME REGULATORY ATPASE SUBUNIT 1, PUTATIVE)?
**A.** 0.98

**Q.** And the “fold change vs vehicle control” value (protein LMJF.22.0730 HY[…], CONSERVED)?
**A.** 1.05

**Q.** What about the fold change (protein LMJF.22.0770 NADH-CYTOCHROME B5 REDUCTASE, PUTATIVE) of the same molecule?
**A.** 1.02

**Q.** And the “fold change relative to vehicle control” value (protein LMJF.23.0020, HY[…], CONSERVED)?
**A.** 1.09

**Q.** What about the “fold change relative to vehicle control” value (protein LMJF.23.0040, PEROXIDOXIN) of the same molecule?
**A.** 1.41

**Q.** And the “fold change relative to vehicle control” value (protein LMJF.23.0080, HY[…], CONSERVED)?
**A.** 1.07

**Q.** What about the fold change (protein LMJF.23.0210 ATP-BINDING CASSETTE PROTEIN SUBFAMILY C, MEMBER 1, PUTATIVE) of the same molecule?
**A.** 0.88

**Q.** And the fold change (protein LMJF.23.0370 CYTOCHROME C OXIDASE SUBUNIT 10, PUTATIVE)?
**A.** 0.88

**Q.** What about the “fold change relative to vehicle control” value (protein LMJF.23.0540, ACETYL-COA SYNTHETASE, PUTATIVE) of the same molecule?
**A.** 1.24

**Q.** What about the “fold change vs vehicle control” value (protein LMJF.23.0560 KINESIN, PUTATIVE) of the same molecule?
**A.** 1.03

**Q.** What about the “fold change vs vehicle control” value (protein LMJF.23.1410 HY[…], CONSERVED) of the same molecule?
**A.** 1.01

**Q.** What about the “fold change relative to vehicle control” value (protein LMJF.24.0070, HYPOTHETICAL PROTEIN, CONSERVED) of the same molecule?
**A.** 0.98

**Q.** What about the fold change (protein LMJF.24.0140 ANKYRIN/TPR REPEAT PROTEIN) of the same molecule?
**A.** 0.96

**Q.** And the fold change (protein LMJF.24.0400 HY[…], CONSERVED (TPR repeat, putative))?
**A.** 1.02

**Q.** And the “fold change relative to vehicle control” value (protein LMJF.24.1510, IGE-DEPENDENT HISTAMINE-RELEASING FACTOR, PUTATIVE)?
**A.** 1.54

**Q.** And the “fold change relative to vehicle control” value (protein LMJF.24.1630, SUCCINATE DEHYDROGENASE FLAVOPROTEIN, PUTATIVE)?
**A.** 1.06

**Q.** And the “fold change relative to vehicle control” value (protein LMJF.24.2060, TRANSKETOLASE)?
**A.** 0.92

**Q.** And the “fold change relative to vehicle control” value (protein LMJF.25.0010, BETA […] TRANSFERASE)?
**A.** 1.41

**Q.** And the “fold change relative to vehicle control” value (protein LMJF.25.0910, CYCLOPHILIN A)?
**A.** 2.65

**Q.** And the “fold change vs vehicle control” value (protein LMJF.25.1130 […] OXIDASE VII, PUTATIVE)?
**A.** 1.08

**Q.** What about the “fold change relative to vehicle control” value (protein LMJF.25.1180, ATPASE BETA SUBUNIT, PUTATIVE) of the same molecule?
**A.** 1.04

**Q.** And the “fold change vs vehicle control” value (protein LMJF.25.1610 HY[…], CONSERVED)?
**A.** 1.03

**Q.** And the “fold change vs vehicle control” value (protein LMJF.25.1620 HYPOTHETICAL PROTEIN, CONSERVED)?
**A.** 0.97

**Q.** What about the fold change (protein LMJF.25.2340 SERINE/THREONINE-PROTEIN KINASE, PUTATIVE,PROTEIN KINASE, PUTATIVE) of the same molecule?
**A.** 0.76

**Q.** And the “fold change relative to vehicle control” value (protein LMJF.26.0630, HY[…], CONSERVED)?
**A.** 1.23

**Q.** What about the “fold change vs vehicle control” value (protein LMJF.26.1240 HEAT SHOCK PROTEIN 70-RELATED PROTEIN) of the same molecule?
**A.** 1.1

**Q.** What about the fold change (protein LMJF.26.1710 CYTOCHROME C OXIDASE SUBUNIT V, PUTATIVE) of the same molecule?
**A.** 0.98

**Q.** What about the “fold change vs vehicle control” value (protein LMJF.26.2480 CDP-DIACYLGLYCEROL--INOSITOL 3-PHOSPHATIDYLTRANSFERASE, PUTATIVE) of the same molecule?
**A.** 0.94

**Q.** What about the “fold change vs vehicle control” value (protein LMJF.26.2560 HYPOTHETICAL PROTEIN, CONSERVED) of the same molecule?
**A.** 0.91

**Q.** What about the “fold change vs vehicle control” value (protein LMJF.27.0190 […] 7 SUBUNIT, PUTATIVE) of the same molecule?
**A.** 1.06

**Q.** And the fold change (protein LMJF.27.0650 HYPOTHETICAL PROTEIN, CONSERVED)?
**A.** 0.98

**Q.** And the fold change (protein LMJF.27.0700 HYPOTHETICAL PROTEIN, CONSERVED)?
**A.** 0.69

**Q.** What about the “fold change vs vehicle control” value (protein LMJF.27.0760 GTP-binding protein homologue) of the same molecule?
**A.** 1.15

**Q.** What about the “fold change vs vehicle control” value (protein LMJF.27.1060 CYSTEINE DESULFURASE, PUTATIVE) of the same molecule?
**A.** 1.03

**Q.** What about the “fold change vs vehicle control” value (protein LMJF.27.1110 MITOCHONDRIAL RNA BINDING PROTEIN 1,GBP21, MRP1) of the same molecule?
**A.** 0.96

**Q.** What about the fold change (protein LMJF.27.1250 HYPOTHETICAL PROTEIN, CONSERVED (Serine-threonine kinase receptor-associated protein, putative)) of the same molecule?
**A.** 0.88

**Q.** What about the “fold change relative to vehicle control” value (protein LMJF.27.1390, 60S ACIDIC RIBOSOMAL SUBUNIT PROTEIN, PUTATIVE) of the same molecule?
**A.** 1.11

**Q.** And the fold change (protein LMJF.27.1460 PROTEASOME REGULATORY NON-ATP-ASE SUBUNIT 3, PUTATIVE)?
**A.** 0.97

**Q.** What about the “fold change vs vehicle control” value (protein LMJF.28.0110 […] 3 SUBUNIT, PUTATIVE) of the same molecule?
**A.** 1.08

— article PMC6199744, “Development of Chemical Proteomics for the Folateome and Analysis of the Kinetoplastid Folateome” (ACS Infectious Diseases, 2018)
